Measured values published in ChEMBL document CHEMBL5584261, “N-methylmorpholine incorporation into the structure of biphenyl leads to the bioactive inhibitor of PD-1/PD-L1 interaction” (Bioorg Med Chem Lett, 2024).
Active and inactive are the calls of the source. No cut-off for these calls is given here.

Assays:
[1] = molecular target: T1, Programmed cell death protein 1/Programmed cell death 1 ligand 1 (Homo sapiens) (UniProt Q15116+Q9NZQ7); experiment: Inhibition of human PD-1/PD-L1 interaction assessed as residual activity at 500 nM for 1 hr by HTRF assay relative to control; format: protein-complex assay
[2] = molecular target: T1, Programmed cell death protein 1/Programmed cell death 1 ligand 1 (Homo sapiens); experiment: (§1) Inhibition of PD-1/PD-L1 interaction in human Jurkat T cells co-cultured with CHO/TCRAct/PDL1 cells assessed as restoration of T cell activation measured for 6 hrs by luminescence based immune checkpoint blockade assay; details: dose 0.1-100 µM
[3] = molecular target: T2, Programmed cell death protein 1/Programmed cell death 1 ligand 1 (Homo sapiens, UniProt Q9NZQ7); experiment: as §1
PBMC [4] = experiment: Induction of T cell activation in human PBMC cells co-cultured with CHO/TCRAct/PD-L1 cells assessed as increase in HLA-DR positive cells at 10 uM incubated for 48 hrs by flow cytometry analysis; format: functional, cell-based
PBMC [5] = experiment: Induction of T cell activation in human PBMC cells co-cultured with CHO/TCRAct/PD-L1 cells assessed as increase in PD-1 positive cells at 10 uM incubated for 48 hrs by flow cytometry analysis; format: functional, cell-based
PBMC [6] = experiment: Induction of T cell activation in human PBMC cells co-cultured with CHO/TCRAct/PD-L1 cells assessed as increase in the percentage of CD25+/CD4+ cells at 10 uM incubated for 48 hrs by flow cytometry analysis; format: functional, cell-based
PBMC [7] = experiment: Induction of T cell activation in human PBMC cells co-cultured with CHO/TCRAct/PD-L1 cells assessed as increase in the percentage of CD69+/CD8+ cells at 10 uM incubated for 48 hrs by flow cytometry analysis; format: functional, cell-based
[8] = molecular target: T2, Programmed cell death protein 1/Programmed cell death 1 ligand 1; experiment: Inhibition of human PD-1/PD-L1 interaction incubated for 1 hr by HTRF assay; format: protein-complex assay

T2 sequence (Q15116 whole entry): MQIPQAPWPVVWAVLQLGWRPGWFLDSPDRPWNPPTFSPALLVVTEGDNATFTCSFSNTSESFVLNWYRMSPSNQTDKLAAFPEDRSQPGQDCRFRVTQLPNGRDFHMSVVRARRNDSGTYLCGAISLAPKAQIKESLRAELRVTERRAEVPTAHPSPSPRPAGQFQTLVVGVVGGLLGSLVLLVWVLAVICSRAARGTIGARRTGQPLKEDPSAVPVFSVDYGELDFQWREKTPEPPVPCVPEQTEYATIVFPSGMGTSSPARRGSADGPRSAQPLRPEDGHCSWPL
T2 sequence (Q9NZQ7 whole entry): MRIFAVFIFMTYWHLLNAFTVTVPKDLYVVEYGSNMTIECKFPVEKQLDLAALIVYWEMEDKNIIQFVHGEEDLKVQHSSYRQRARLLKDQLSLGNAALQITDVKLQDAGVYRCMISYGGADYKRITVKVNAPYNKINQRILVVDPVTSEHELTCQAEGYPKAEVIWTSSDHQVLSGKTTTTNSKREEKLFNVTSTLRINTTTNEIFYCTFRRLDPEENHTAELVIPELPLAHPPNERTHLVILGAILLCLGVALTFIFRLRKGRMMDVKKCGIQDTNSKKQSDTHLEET

Cc1c(NC(=O)c2ccc(CNC(CO)(CO)CO)cn2)cccc1-c1ccc2c(c1)OCCN2C(=O)c1ccc(CNC(CO)(CO)CO)cc1
Activity [1]: 92%

Cc1c(NC(=O)c2ccc(CNC(CO)(CO)CO)cn2)cccc1-c1ccc2c(c1)OCCN2C
inhibition [2]: Dose-Dependent Effect | EC50 [3]: 25.8 µM | Activity (PBMC [4]): Active | Activity (PBMC [5]): Active | Activity (PBMC [6]): Active | Activity (PBMC [7]): Active | IC50 [8]: 0.077 µM

Cc1c(COc2ccc(CNC(CO)CO)cc2)cccc1-c1ccc2c(c1)OCCN2C(=O)c1ccc(CNC(CO)CO)cc1
Activity [1]: 84%

O=C(O)[C@@H]1CCCCN1Cc1ccc(OCc2cccc(-c3ccccc3)c2Br)c(Br)c1
EC50 [3]: 6.6 µM

Cc1c(NC(=O)c2ccc(CNC(CO)CO)cn2)cccc1-c1ccc2c(c1)OCCN2C(=O)c1ccc(CNC(CO)CO)cc1
Activity [1]: 70%

Cc1c(NC(=O)c2ccc(CNC(CO)CO)cn2)cccc1-c1ccc2c(c1)OCCN2C
inhibition [2]: inactive | IC50 [8]: 0.109 µM

Cc1c(COc2ccc(CNC(CO)(CO)CO)cc2)cccc1-c1ccc2c(c1)OCCN2C(=O)c1ccc(CNC(CO)(CO)CO)cc1
Activity [1]: 83%
